Results as given in patent US9163007B2, “5-substituted indazoles as kinase inhibitors” (AbbVie Inc., priority 2007, dated 2015).

Test system: HCT-116 cells
Test: AlamarBlue Cell Viability Assays
Format: cell-based
Conditions: Homo sapiens, treated 72 hours
Procedure: AlamarBlue Cell Viability Assays
HCT-116 cells (3,000/well; 96-well format) were treated for 72 hours with increasing concentrations of compounds (0.01-30 μM in half-log increments). The cells were then incubated in fresh media with 10% AlamarBlue reagent (Invitrogen #DAL1100). AlamarBlue reactions were incubated according to the manufacturer's instructions (approximately 4 hours) and then analyzed using an fmax fluorescence microplate reader (Molecular Devices) using excitation/emission wavelengths of 544/595 nm. Data were analyzed using SOFTmax PRO software provided by the manufacturer.

First: Clc1ccc(Cn2cc(-c3ccc4[nH]ncc4c3)nn2)c(Cl)c1 [Example 32, 5-[1-(2,4-dichlorobenzyl)-1H-1,2,3-triazol-4-yl]-1H-indazole]
Second: CCS(=O)(=O)Nc1n[nH]c2ccc(-c3nnn(Cc4ccccc4)c3C3CC3)cc12 [Example 216, N-[5-(1-benzyl-5-cyclopropyl-1H-1,2,3-triazol-4-yl)-1H-indazol-3-yl]ethanesulfonamide]
The EC50 of the first is higher: greater than 30000 nM for the first, 19100 nM for the second.

Compound COc1ccc(NC(=O)Nc2n[nH]c3ccc(-c4nnn(Cc5ccccc5)c4-c4ccccc4)cc23)cc1 [Example 200, N-[5-(1-benzyl-5-phenyl-1H-1,2,3-triazol-4-yl)-1H-indazol-3-yl]-N′-(4-methoxyphenyl)urea] has an EC50 of 13500 nM.

Target: Cdc7/Dbf4 (Homo sapiens (Human), UniProt O00311)
Sequence (O00311 whole entry): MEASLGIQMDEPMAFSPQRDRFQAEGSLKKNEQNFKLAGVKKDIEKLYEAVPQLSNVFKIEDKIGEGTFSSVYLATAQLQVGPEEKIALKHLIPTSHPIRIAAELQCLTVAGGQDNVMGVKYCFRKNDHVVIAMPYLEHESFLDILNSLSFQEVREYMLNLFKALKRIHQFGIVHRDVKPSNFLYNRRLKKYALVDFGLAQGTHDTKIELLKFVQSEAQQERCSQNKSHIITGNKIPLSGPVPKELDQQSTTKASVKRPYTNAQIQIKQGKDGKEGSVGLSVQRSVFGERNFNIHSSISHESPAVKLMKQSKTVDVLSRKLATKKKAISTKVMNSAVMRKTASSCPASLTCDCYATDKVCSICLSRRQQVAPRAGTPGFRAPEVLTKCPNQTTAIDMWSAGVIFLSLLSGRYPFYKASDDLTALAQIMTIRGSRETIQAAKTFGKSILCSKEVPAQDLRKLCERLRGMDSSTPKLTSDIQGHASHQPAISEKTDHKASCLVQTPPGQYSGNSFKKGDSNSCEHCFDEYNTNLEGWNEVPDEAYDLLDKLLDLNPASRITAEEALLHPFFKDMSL
Sequence (Q9UBU7 whole entry partner): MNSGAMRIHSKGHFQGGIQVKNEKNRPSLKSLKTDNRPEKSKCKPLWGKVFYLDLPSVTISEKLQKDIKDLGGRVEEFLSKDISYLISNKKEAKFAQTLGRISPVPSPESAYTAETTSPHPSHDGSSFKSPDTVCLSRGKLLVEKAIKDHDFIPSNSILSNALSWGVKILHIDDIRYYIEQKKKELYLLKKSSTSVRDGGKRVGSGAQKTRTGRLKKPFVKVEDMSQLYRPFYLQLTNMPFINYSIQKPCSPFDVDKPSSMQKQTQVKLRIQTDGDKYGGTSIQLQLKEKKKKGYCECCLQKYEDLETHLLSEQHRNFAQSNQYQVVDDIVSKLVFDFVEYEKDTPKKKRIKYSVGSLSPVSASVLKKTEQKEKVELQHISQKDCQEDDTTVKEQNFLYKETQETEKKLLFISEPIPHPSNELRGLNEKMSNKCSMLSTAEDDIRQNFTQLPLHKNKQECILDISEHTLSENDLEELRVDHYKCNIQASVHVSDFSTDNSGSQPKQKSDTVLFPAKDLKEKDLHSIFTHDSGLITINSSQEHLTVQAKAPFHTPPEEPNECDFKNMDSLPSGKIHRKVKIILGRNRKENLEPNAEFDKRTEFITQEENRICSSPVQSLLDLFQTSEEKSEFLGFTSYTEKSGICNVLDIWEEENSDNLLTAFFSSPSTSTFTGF
Test: Cdc7 Inhibition Assay;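 also: reaction mixtures incubated 30 min on streptavidin-coated plates, then quantified by scintillation counting, with inhibition curves fitted by non-linear regression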
Format: biochemical
Conditions: 6 data point; read-out: Ki (μM) 6 data point
Procedure: The reactions were incubated for 30 minutes on streptavidin-coated plates, washed, and quantified using a TopCount scintillation plate reader (Packard). IC50 values are determined via non-linear regression fitting of the data.

First: O=C(c1cccc(Cl)c1)c1c(-c2ccc3[nH]ncc3c2)nnn1CC1CCOCC1 [Example 146, (3-chlorophenyl)[4-(1H-indazol-5-yl)-1-(tetrahydro-2H-pyran-4-ylmethyl)-1H-1,2,3-triazol-5-yl]methanone]
Second: O=C(c1c(-c2ccc3[nH]ncc3c2)nnn1Cc1ccccc1)N1CCOCC1 [Example 172, 5-[1-benzyl-5-(morpholin-4-ylcarbonyl)-1H-1,2,3-triazol-4-yl]-1H-indazole]
The Ki of the first is lower: 0.229 µM for the first, greater than 1.23 µM for the second.

Compared with O=C(c1c(-c2ccc3[nH]ncc3c2)nnn1Cc1ccccc1)N1CCCCC1 [Example 169, 5-[1-benzyl-5-(piperidin-1-ylcarbonyl)-1H-1,2,3-triazol-4-yl]-1H-indazole], NC1CCN(C(=O)c2c(-c3ccc4[nH]ncc4c3)nnn2Cc2ccccc2)CC1 [Example 197, 1-{[1-benzyl-4-(1H-indazol-5-yl)-1H-1,2,3-triazol-5-yl]carbonyl}piperidin-4-amine] is lower in Ki: greater than 1.23 µM for the first, 1.23 µM for the second. The second binds more tightly here.

Going from Cc1ccccc1-c1c(-c2ccc3[nH]nc(N)c3c2)nnn1CC1CCOCC1 [Example 171, 5-[5-(2-methylphenyl)-1-(tetrahydro-2H-pyran-4-ylmethyl)-1H-1,2,3-triazol-4-yl]-1H-indazol-3-amine] to c1ccc(CNc2n[nH]c3ccc(-c4nnn(Cc5ccccc5)c4C4CC4)cc23)cc1 [Example 207, N-benzyl-5-(1-benzyl-5-cyclopropyl-1H-1,2,3-triazol-4-yl)-1H-indazol-3-amine], the Ki rises from 0.03 µM to 0.046 µM (1.5-fold). The first binds more tightly here.

O=C(Nc1ccccc1)c1c(-c2ccc3[nH]ncc3c2)nnn1Cc1ccccc1 [Example 243, 1-benzyl-4-(1H-indazol-5-yl)-N-phenyl-1H-1,2,3-triazole-5-carboxamide] and CC1CN(C(=O)c2c(-c3ccc4[nH]ncc4c3)nnn2Cc2ccccc2)CC(C)O1 (stereo not shown) [Example 254, 5-{1-benzyl-5-[(2,6-dimethylmorpholin-4-yl)carbonyl]-1H-1,2,3-triazol-4-yl}-1H-indazole] cannot be ordered by Ki: greater than 1.23 µM for the first, greater than 1.23 µM for the second.

CC(=O)N1CCN(C(=O)c2c(-c3ccc4[nH]ncc4c3)nnn2Cc2ccccc2)CC1 [Example 255, 5-{5-[(4-acetylpiperazin-1-yl)carbonyl]-1-benzyl-1H-1,2,3-triazol-4-yl}-1H-indazole] was tested, and the Ki was greater than 1.23 µM.

Same assay, conditions: 11 data point; read-out: Ki (μM) 11 data point

Compared with Fc1ccc(Cn2cc(-c3ccc4[nH]ncc4c3)nn2)cc1 [Example 10, 5-[1-(4-fluorobenzyl)-1H-1,2,3-triazol-4-yl]-1H-indazole], Clc1ccc(Cn2cc(-c3ccc4[nH]ncc4c3)nn2)c(Cl)c1 [Example 32, 5-[1-(2,4-dichlorobenzyl)-1H-1,2,3-triazol-4-yl]-1H-indazole] is 4.4-fold lower in Ki: 0.0563 µM for the first, 0.0127 µM for the second. The second binds more tightly here.

Going from Nc1n[nH]c2ccc(-c3nnn(Cc4ccc(C(F)(F)F)cc4)c3-c3ccc(F)cc3)cc12 [Example 150, 5-{5-(4-fluorophenyl)-1-[4-(trifluoromethyl)benzyl]-1H-1,2,3-triazol-4-yl}-1H-indazol-3-amine] to COc1ccc(NC(=O)Nc2n[nH]c3ccc(-c4nnn(Cc5ccccc5)c4-c4ccccc4)cc23)cc1 [Example 200, N-[5-(1-benzyl-5-phenyl-1H-1,2,3-triazol-4-yl)-1H-indazol-3-yl]-N′-(4-methoxyphenyl)urea], the Ki falls from 0.43 µM to 0.013 µM (33-fold). The second binds more tightly here.

Going from O=S(=O)(Nc1n[nH]c2ccc(-c3nnn(Cc4ccccc4)c3-c3ccccc3)cc12)c1ccccc1 [Example 199, N-[5-(1-benzyl-5-phenyl-1H-1,2,3-triazol-4-yl)-1H-indazol-3-yl]benzenesulfonamide] to O=S(=O)(Nc1n[nH]c2ccc(-c3nnn(Cc4ccccc4)c3C3CC3)cc12)c1ccccc1 [Example 217, N-[5-(1-benzyl-5-cyclopropyl-1H-1,2,3-triazol-4-yl)-1H-indazol-3-yl]benzenesulfonamide], the Ki rises from 0.34 µM to 1 µM (2.9-fold).

Compared with CCS(=O)(=O)Nc1n[nH]c2ccc(-c3nnn(Cc4ccccc4)c3C3CC3)cc12 [Example 216, N-[5-(1-benzyl-5-cyclopropyl-1H-1,2,3-triazol-4-yl)-1H-indazol-3-yl]ethanesulfonamide], O=S(=O)(Nc1n[nH]c2ccc(-c3nnn(Cc4ccccc4)c3C3CC3)cc12)c1ccccc1Cl [Example 218, N-[5-(1-benzyl-5-cyclopropyl-1H-1,2,3-triazol-4-yl)-1H-indazol-3-yl]-2-chlorobenzenesulfonamide] is higher in Ki: 0.12 µM for the first, greater than 1.23 µM for the second.

Going from O=S(=O)(Nc1n[nH]c2ccc(-c3nnn(Cc4ccccc4)c3C3CC3)cc12)c1ccc(Cl)cc1 [Example 220, N-[5-(1-benzyl-5-cyclopropyl-1H-1,2,3-triazol-4-yl)-1H-indazol-3-yl]-4-chlorobenzenesulfonamide] to Clc1ccc(CNc2n[nH]c3ccc(-c4cn(Cc5ccccc5)nn4)cc23)cc1 [Example 412, 5-(1-benzyl-1H-1,2,3-triazol-4-yl)-N-(4-chlorobenzyl)-1H-indazol-3-amine], the Ki falls from 0.98 µM to 0.14 µM (7-fold).

Going from CN(C)CCC(=O)Nc1n[nH]c2ccc(-c3cn(Cc4ccccc4)nn3)cc12 [Example 311, N^1-[5-(1-benzyl-1H-1,2,3-triazol-4-yl)-1H-indazol-3-yl]-N^3,N^3-dimethyl-beta-alaninamide] to CN(C)C(=O)c1n[nH]c2ccc(-c3cn(Cc4ccccc4)nn3)cc12 [Example 396, 5-(1-benzyl-1H-1,2,3-triazol-4-yl)-N,N-dimethyl-1H-indazole-3-carboxamide], the Ki falls from greater than 1.23 µM to 0.681 µM.

First: O=C1CN(CC(=O)Nc2n[nH]c3ccc(-c4cn(Cc5ccccc5)nn4)cc23)CCN1 [Example 314, N-[5-(1-benzyl-1H-1,2,3-triazol-4-yl)-1H-indazol-3-yl]-2-(3-oxopiperazin-1-yl)acetamide]
Second: O=C(CNC1CCC1)Nc1n[nH]c2ccc(-c3cn(Cc4ccccc4)nn3)cc12 [Example 318, N^1-[5-(1-benzyl-1H-1,2,3-triazol-4-yl)-1H-indazol-3-yl]-N^2-cyclobutylglycinamide]
The Ki of the first is lower: 0.18 µM for the first, greater than 1.23 µM for the second.

O=C(CNC1CCCCC1)Nc1n[nH]c2ccc(-c3cn(Cc4ccccc4)nn3)cc12 [Example 316, N^1-[5-(1-benzyl-1H-1,2,3-triazol-4-yl)-1H-indazol-3-yl]-N^2-cyclohexylglycinamide] and c1ccc(Cn2cc(-c3ccc4[nH]nc(NCC5CCCCC5)c4c3)nn2)cc1 [Example 417, 5-(1-benzyl-1H-1,2,3-triazol-4-yl)-N-(cyclohexylmethyl)-1H-indazol-3-amine] are within 1.5-fold of each other in Ki: 0.5 µM for the first, 0.35 µM for the second.

First: CCS(=O)(=O)Nc1n[nH]c2ccc(-c3cn(Cc4ccccc4)nn3)cc12 [Example 320, N-[5-(1-benzyl-1H-1,2,3-triazol-4-yl)-1H-indazol-3-yl]ethanesulfonamide]
Second: CCCCNc1n[nH]c2ccc(-c3cn(Cc4ccccc4)nn3)cc12 [Example 410, 5-(1-benzyl-1H-1,2,3-triazol-4-yl)-N-butyl-1H-indazol-3-amine]
The Ki of the first is 10-fold higher: 0.41 µM for the first, 0.04 µM for the second. The second binds more tightly here.

Compared with c1ccc(Cn2cc(-c3ccc4[nH]nc(NCC5CC5)c4c3)nn2)cc1 [Example 321, 5-(1-benzyl-1H-1,2,3-triazol-4-yl)-N-(cyclopropylmethyl)-1H-indazol-3-amine], c1ccc(Cn2cc(-c3ccc4[nH]nc(NCCN5CCOCC5)c4c3)nn2)cc1 [Example 407, 5-(1-benzyl-1H-1,2,3-triazol-4-yl)-N-(2-morpholin-4-ylethyl)-1H-indazol-3-amine] is 2.6-fold lower in Ki: 0.57 µM for the first, 0.22 µM for the second. The second binds more tightly here.

Going from O=C1CCCN1c1n[nH]c2ccc(-c3cn(Cc4ccccc4)nn3)cc12 [Example 323, 1-[5-(1-benzyl-1H-1,2,3-triazol-4-yl)-1H-indazol-3-yl]pyrrolidin-2-one] to c1ccc(Cn2cc(-c3ccc4[nH]nc(N5CCOCC5)c4c3)nn2)cc1 [Example 399, 5-(1-benzyl-1H-1,2,3-triazol-4-yl)-3-morpholin-4-yl-1H-indazole], the Ki rises from 0.18 µM to 0.63 µM (3.5-fold). The first binds more tightly here.

First: Cn1ccnc1-c1n[nH]c2ccc(-c3cn(Cc4ccccc4)nn3)cc12 [Example 398, 5-(1-benzyl-1H-1,2,3-triazol-4-yl)-3-(1-methyl-1H-imidazol-2-yl)-1H-indazole]
Second: c1ccc(Cn2cc(-c3ccc4[nH]nc(-c5nccs5)c4c3)nn2)cc1 [Example 404, 5-(1-benzyl-1H-1,2,3-triazol-4-yl)-3-(1,3-thiazol-2-yl)-1H-indazole]
The Ki of the first is 1.9-fold higher: 0.489 µM for the first, 0.258 µM for the second. The second binds more tightly here.

Compared with CN1CCN(c2n[nH]c3ccc(-c4cn(Cc5ccccc5)nn4)cc23)CC1 [Example 400, 5-(1-benzyl-1H-1,2,3-triazol-4-yl)-3-(4-methylpiperazin-1-yl)-1H-indazole], c1ccc(CNc2n[nH]c3ccc(-c4cn(Cc5ccccc5)nn4)cc23)cc1 [Example 411, N-benzyl-5-(1-benzyl-1H-1,2,3-triazol-4-yl)-1H-indazol-3-amine] is 1.9-fold lower in Ki: 0.23 µM for the first, 0.12 µM for the second.

COc1ccc(CNc2n[nH]c3ccc(-c4cn(Cc5ccccc5)nn4)cc23)cc1 [Example 413, 5-(1-benzyl-1H-1,2,3-triazol-4-yl)-N-(4-methoxybenzyl)-1H-indazol-3-amine] and N#Cc1ccc(CNc2n[nH]c3ccc(-c4cn(Cc5ccccc5)nn4)cc23)cc1 [Example 415, 4-({[5-(1-benzyl-1H-1,2,3-triazol-4-yl)-1H-indazol-3-yl]amino}methyl)benzonitrile] are within 1.5-fold of each other in Ki: 0.052 µM for the first, 0.065 µM for the second.

Fc1cccc(CNc2n[nH]c3ccc(-c4cn(Cc5ccccc5)nn4)cc23)c1 [Example 414, 5-(1-benzyl-1H-1,2,3-triazol-4-yl)-N-(3-fluorobenzyl)-1H-indazol-3-amine] and Fc1ccc(CNc2n[nH]c3ccc(-c4cn(Cc5ccccc5)nn4)cc23)c(F)c1 [Example 416, 5-(1-benzyl-1H-1,2,3-triazol-4-yl)-N-(2,4-difluorobenzyl)-1H-indazol-3-amine] are within 1.5-fold of each other in Ki: 0.038 µM for the first, 0.037 µM for the second.

Work on c1ccc(-n2cc(-c3ccc4[nH]ncc4c3)nn2)cc1 [Example 418, 5-(1-phenyl-1H-1,2,3-triazol-4-yl)-1H-indazole] yielded a Ki of 0.192 µM.
